Measurements published in patent US20090306373A1, “4,7-DIHYDROTHIENO[2,3-B]PYRIDINE COMPOUNDS AND PHARMACEUTICAL COMPOSITIONS” (priority 2005, published 2009).

system: alpha-MyHC; test: alpha-MyHC cytoblot in neonatal rat ventricular myocytes (NRVM); format: cell-based; conditions: Rattus norvegicus, Ventricular myocyte, Table 1, 72 hours, concentration giving 50% of maximum response
Experimental: In vitro activity of each compound is measured using the alpha-MyHC cytoblot process. Briefly, neonatal rat ventricular myocytes (NRVM) at 120,000 cells/ml in HyQ DME/High modified culture media supplemented with 10% charcoal/dextran treated FBS, 0.1% Nutridoma-SP, 1:100 MEM non-essential amino acids, 1:50 MEM amino acids solution w/o L-Gln, 1 mM sodium pyruvate and 1:100 P/S/G, are plated on gelatin coated sterile 384-well plates (Costar 3712) at 6,000 cells per well. Cells are incubated overnight at 37° C. in 5% CO2 100% humidity. Following overnight growth the media is changed to HyQ DME/High modified culture media supplemented with 0.3% Nutridoma-SP, 1:100 MEM non-essential amino acids, 1:50 MEM amino acids solution w/o L-Gln, 1 mM sodium pyruvate and 1:100 P/S/G. Cells are then dosed with serial dilutions of each compound in DMSO. Each concentration in the dose range is dosed in quadruplicate. Dosing is done in such a way so that the final DMSO concentration was 0.44%. Compound dilutions are 3-fold with the final top concentration of 10 uM. […] Following dosing, the cells are incubated for 72 hours at 37° C. in 5% CO2 100% humidity and then processed with the cytoblot method. Briefly, cell media is aspirated and cell monolayers washed with PBS and fixed with 100% methanol for 30 minutes. Fixed cells are then blocked with PBS, 0.05% Tween-20, 1% BSA, for 1 hour. Following blocking, cells are incubated with primary alpha-MyHC-specific antibody (1:30 dilution of BA-G5 hybridoma conditioned media, ATCC HB276) for 1 hour. Following incubation with the primary antibody, cells are washed with PBS, 0.05% Tween-20, 1% BSA and incubated with secondary antibody (1:1000 dilution, goat-anti-mouse HRP, Southern Biotech, 1031-05) for 1 hour. Following incubation with the secondary antibody, wells are washed and incubated in SuperSignal, West Dura HRP-luminescence substrate for 30 seconds under shaking at room temperature. Luminescence is measured using a Packard Fusion plate reader. […] RLU values are converted into percent fraction of low control and dose responses are fitted to a sigmoidal 4-parameter equation (XLFit, IDBS) where the EC50 and Max Plateau values were extracted. […] Max Plateau is the […] maximum value determined by the dose response fit.

Structure (SMILES) | EC50
CC(=O)C1=C(C)Nc2sc(C(=O)c3cccc([N+](=O)[O-])c3)c(N)c2C1c1ccccc1Cl (stereo not drawn) [Compound 4, 1-[3-amino-4-(2-chloro-phenyl)-6-methyl-2-(3-nitro-benzoyl)-4,7-dihydro-thieno[2,3-b]pyridin-5-yl]-ethanone] | 85.7 nM

same assay, conditions: Table 1, 72 hours, concentration giving 50% of maximum response

Structure (SMILES) | EC50
CCC(=O)C1=C(CC)Nc2sc(C(=O)c3ccc(Cl)c(Cl)c3)c(N)c2C1c1ccccc1F (racemic) [Compound 39, 1-[3-amino-2-(3,4-dichloro-benzoyl)-6-ethyl-4-(2-fluoro-phenyl)-4,7-dihydro-thieno[2,3b]pyridin-5-yl]-propan-1-one] | 17.1 nM

same assay, conditions: Table 1, 72 hours, fitted maximum, percent fraction of low control (vehicle), in %

Structure (SMILES) | Max Plateau
CCC(=O)C1=C(CC)Nc2sc(C(=O)c3ccc(Cl)c(Cl)c3)c(N)c2C1c1ccccc1F (racemic) [Compound 39, 1-[3-amino-2-(3,4-dichloro-benzoyl)-6-ethyl-4-(2-fluoro-phenyl)-4,7-dihydro-thieno[2,3b]pyridin-5-yl]-propan-1-one] | 272.61 ± 37.32
CC(=O)C1=C(C)Nc2sc(C(=O)c3ccc(Cl)c(Cl)c3)c(N)c2C1c1ccccc1 (stereo not drawn) [Compound 2] | 207.74 ± 23.00
CC(=O)C1=C(C)Nc2sc(C(=O)c3ccccc3)c(N)c2C1c1ccccc1 (stereo not drawn) [Compound 3] | 250.88 ± 32.62
CC(=O)C1=C(C)Nc2sc(C(=O)c3cccnc3)c(N)c2C1c1ccccc1 (stereo not drawn) [Compound 5] | 286.43 ± 42.04
CC(=O)C1=C(C)Nc2sc(C(=O)c3cccc(Br)c3)c(N)c2C1c1ccccc1 (stereo not drawn) [Compound 6] | 289.34 ± 70.69
CC(=O)C1=C(C)Nc2sc(C(=O)c3ccc(C)c(C)c3)c(N)c2C1c1ccccc1 (stereo not drawn) [Compound 8] | 172.29 ± 9.66
CC(=O)C1=C(C)Nc2sc(C(=O)c3cccc([N+](=O)[O-])c3)c(N)c2C1c1ccc(C(=O)O)cc1 (stereo not drawn) [Compound 9] | 100.00 ± 0.00
CC(=O)C1=C(C)Nc2sc(C(=O)c3ccncc3)c(N)c2C1c1ccccc1 (stereo not drawn) [Compound 10] | 210.00 ± 36.06
COc1ccc(C2C(C(C)=O)=C(C)Nc3sc(C(=O)c4ccccc4)c(N)c32)cc1 (stereo not drawn) [Compound 14] | 182.73 ± 26.95
COc1cccc(C2C(C(C)=O)=C(C)Nc3sc(C(=O)c4ccccc4)c(N)c32)c1 (stereo not drawn) [Compound 15] | 126.50 ± 24.27
CC(=O)C1=C(C)Nc2sc(C(=O)c3ccccn3)c(N)c2C1c1ccccc1 (stereo not drawn) [Compound 16] | 163.33 ± 32.15
COc1ccccc1C1C(C(C)=O)=C(C)Nc2sc(C(=O)c3ccccc3)c(N)c21 (stereo not drawn) [Compound 18] | 215.25 ± 44.08
CC(=O)C1=C(C)Nc2sc(C(=O)c3ccccc3)c(N)c2C1c1ccncc1 (stereo not drawn) [Compound 19] | 260.00 ± 36.06
CC(=O)C1=C(C)Nc2sc(C(=O)c3ccccc3)c(N)c2C1c1cccnc1 (stereo not drawn) [Compound 20] | 127.35 ± 23.71
CC(=O)C1=C(C)Nc2sc(C(=O)c3ccccc3)c(N)c2C1c1ccc(Cl)cc1 (stereo not drawn) [Compound 21] | 193.20 ± 49.26
CC(=O)C1=C(C)Nc2sc(C(=O)c3ccc(Cl)c(Cl)c3)c(N)c2C1c1ccc(Br)cc1 (stereo not drawn) [Compound 22] | 174.35 ± 23.39
CC(=O)C1=C(C)Nc2sc(C(=O)c3ccc(Cl)c(Cl)c3)c(N)c2C1c1ccc(O)cc1 (stereo not drawn) [Compound 23] | 277.53 ± 33.46
CC(=O)C1=C(C)Nc2sc(C(=O)c3ccccc3)c(N)c2C1c1ccccc1F (stereo not drawn) [Compound 24] | 260.35 ± 43.53
CC(=O)C1=C(C)Nc2sc(C(=O)c3ccccc3)c(N)c2C1C1CCCCC1 (stereo not drawn) [Compound 26] | 185.33 ± 55.04
CC(=O)C1=C(C)Nc2sc(C(=O)c3ccc(Cl)c(Cl)c3)c(N)c2C1c1ccccc1F (stereo not drawn) [Compound 27] | 220.13 ± 23.10
CC(=O)C1=C(C)Nc2sc(C(=O)c3ccc(Cl)c(Cl)c3)c(N)c2C1c1ccc(O)cc1Cl (stereo not drawn) [Compound 29] | 281.88 ± 32.78

Structure (SMILES) | Max Plateau
Nc1c(C(=O)c2ccccc2)sc2c1C(c1ccccc1)C(C(=O)c1ccccc1)=C(c1ccccc1)N2 (stereo not drawn) [Compound 30] | 100.00 ± 0.00
CC(=O)C1=C(C)Nc2sc(C(=O)c3ccc(Cl)c(Cl)c3)c(N)c2C1c1ccc(C(C)(C)C)cc1 (stereo not drawn) [Compound 32] | 100.00 ± 0.00
CC(=O)C1=C(C)Nc2sc(C(=O)c3ccc(Cl)c(Cl)c3)c(N)c2C1c1cc(Cl)cc(Cl)c1 (stereo not drawn) [Compound 33] | 143.15 ± 21.22
CC(=O)C1=C(C)Nc2sc(C(=O)c3ccc(Cl)c(Cl)c3)c(N)c2C1c1ccccc1O (stereo not drawn) [Compound 34] | 184.69 ± 15.76
CCC(=O)C1=C(CC)Nc2sc(C(=O)c3ccc(Cl)c(Cl)c3)c(N)c2C1c1ccccc1 (stereo not drawn) [Compound 36] | 256.56 ± 24.93
CC(=O)C1=C(C)Nc2sc(C(=O)c3ccccc3)c(N)c2C1c1ccc(F)cc1 (stereo not drawn) [Compound 37] | 227.92 ± 12.46
CCC(=O)C1=C(CC)Nc2sc(C(=O)c3ccc(Cl)c(Cl)c3)c(N)c2C1c1ccccc1Cl (stereo not drawn) [Compound 38] | 288.93 ± 52.81
CCC(=O)C1=C(CC)Nc2sc(C(=O)c3ccc(Cl)c(Cl)c3)c(N)c2C1c1c(F)cccc1Cl (stereo not drawn) [Compound 40] | 244.87 ± 7.92
CC(=O)C1=C(C)Nc2sc(C(=O)c3ccc(Cl)c(Cl)c3)c(N)c2C1c1cccs1 (stereo not drawn) [Compound 41] | 178.47 ± 7.82
CC(=O)C1=C(C)Nc2sc(C(=O)c3ccc(Cl)c(Cl)c3)c(N)c2C1c1ccc[nH]1 (stereo not drawn) [Compound 42] | 160.56 ± 20.02
CC(=O)C1=C(C)Nc2sc(C(=O)c3ccccc3)c(N)c2C1c1ccc(C(F)(F)F)cc1 (stereo not drawn) [Compound 44] | 186.67 ± 11.55
CC(=O)C1=C(C)Nc2sc(C(=O)c3ccc(Cl)c(Cl)c3)c(N)c2C1c1ccc(C)cc1 (stereo not drawn) [Compound 45] | 108.63 ± 9.14
CC(C)C(=O)C1=C(C(C)C)Nc2sc(C(=O)c3ccc(Cl)c(Cl)c3)c(N)c2C1c1ccccc1 (stereo not drawn) [Compound 46] | 98.33 ± 4.08
CC(=O)C1=C(C)Nc2sc(C(=O)c3ccc(Cl)c(Cl)c3)c(N)c2C1c1ccc(Cl)c(Cl)c1 (stereo not drawn) [Compound 47] | 173.47 ± 25.64
CC(=O)C1=C(C)Nc2sc(C(=O)c3ccc(Cl)c(Cl)c3)c(N)c2C1c1ccc(C(F)(F)F)cc1 (stereo not drawn) [Compound 48] | 190.81 ± 37.09
CCC(=O)C1=C(CC)Nc2sc(C(=O)c3cccc(F)c3)c(N)c2C1c1ccccc1 (stereo not drawn) [Compound 49] | 299.18 ± 42.31
CC(=O)C1=C(C)Nc2sc(C(=O)c3ccc(Cl)c(Cl)c3)c(N)c2C1c1ccc(F)cc1 (stereo not drawn) [Compound 50] | 190.79 ± 27.94
CC(=O)C1=C(C)Nc2sc(C(=O)c3ccc(Cl)c(Cl)c3)c(N)c2C1c1ccc(Cl)cc1Cl (stereo not drawn) [Compound 52] | 122.73 ± 20.55
CCC(=O)C1=C(CC)Nc2sc(C(=O)c3ccc(Cl)c(Cl)c3)c(N)c2C1c1ccccc1Cl (stereo not drawn) [Compound 53] | 259.43 ± 26.30
CCC(=O)C1=C(CC)Nc2sc(C(=O)c3ccc(Cl)c(Cl)c3)c(N)c2C1c1cccc(Cl)c1 (stereo not drawn) [Compound 54] | 267.44 ± 32.29
CC(=O)C1=C(C)Nc2sc(C(=O)c3ccc(Cl)c(Cl)c3)c(N)c2C1c1cc(F)cc(F)c1 (stereo not drawn) [Compound 55] | 229.93 ± 37.33

same assay, conditions: Table 2, 72 hours, fitted maximum, percent fraction of low control (vehicle), in %

Structure (SMILES) | Max Plateau
CCC1=C(C(=O)OC)C(c2ccnc(F)c2)c2c(sc(C(=O)c3cccc(Cl)c3)c2N)N1 (racemic) [Compound 175] | 289.91
COC(=O)C1=C(C2CC2)Nc2sc(C(=O)c3cccc(Cl)c3)c(N)c2C1c1ccnc(F)c1 (racemic) [Compound 176] | 218.25
COC(=O)C1=C(C(C)C)Nc2sc(C(=O)c3cccc(C#N)c3)c(N)c2C1c1ccccc1F (racemic) [Compound 177] | 162.75
CCOC(=O)C1=C(CC)Nc2sc(C(=O)c3ccc(F)c(CC(=O)OC)c3)c(N)c2C1c1ccccc1 (racemic) [Compound 194] | 188.67
CCC1=C(C(=O)OC(C)CC)C(c2ccccc2F)c2c(sc(C(=O)c3ccc(Cl)c(Cl)c3)c2N)N1 (single isomer, unassigned) [Compound 162] | 183.22
CCC1=C(C(=O)OC(C)CC)C(c2ccccc2F)c2c(sc(C(=O)c3ccc(Cl)c(Cl)c3)c2N)N1 (single isomer, unassigned) [Compound 163] | 224.85
CCC1=C(C(=O)OC(C)CC)C(c2ccccc2F)c2c(sc(C(=O)c3cccc(C#N)c3)c2N)N1 (single isomer, unassigned) [Compound 166] | 219.07

same assay, conditions: Table 3, 72 hours, fitted maximum, percent fraction of low control (vehicle), in %

Structure (SMILES) | Max Plateau
CCNC(=O)C1=C(C)Nc2sc(C(=O)c3ccc(Cl)c(Cl)c3)c(N)c2C1c1ccccc1 (racemic) [Compound 195] | 126.67 ± 23.09
CCCCNC(=O)C1=C(C)Nc2sc(C(=O)c3ccc(Cl)c(Cl)c3)c(N)c2C1c1ccccc1 (racemic) [Compound 196] | 121.93 ± 25.12

same assay, conditions: Table 5, 72 hours, fitted maximum, percent fraction of low control (vehicle), in %

Structure (SMILES) | Max Plateau
COCCOCN1C(C)=C(C(C)=O)C(c2ccccc2)c2c1sc(C(=O)c1ccccc1)c2N (racemic) [Compound 209] | 192.74
